In patent publication US7511145B2 (Genelabs Technologies, Inc., priority 2003, dated 2009):

Target: T1, HCV-NS5b (Hepatitis C virus genotype 1b, UniProt Q9WMX2)
T1 construct: (His)6 (C); made in house; host or cells: XL-1 cells (E. coli), IPTG-inducible plasmid, nickel-NTA purification
Assay: HCV-NS5b enzyme assay (incorporation of radiolabeled UTP)
Assay type: biochemical
Settings: for inhibition at 33 µM / % inh@33: enzyme inhibition at compound concentration of 33 uM; for inhibition at 100 µM: read-out: % inh@100, enzyme inhibition at compound concentration of 100 uM; for % inh@100: enzyme inhibition at compound concentration of 100 uM
Method in brief: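 His6-tagged NS5b lacking the C-terminal 21 residues, expressed in XL-1 and Ni-NTA purified. Reaction at pH 7.5 with 5 mM MgCl2, 10 μM each NTP including [3H]-UTP and biotinylated HCV heteropolymeric template, 2 h at 37° C; SPA read-out; % inhibition at 100 and 33 uM versus no-compound control, background subtracted.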

Compound | inhibition at 33 µM [%] | inhibition at 100 µM [%] | also measured
COc1ccc(-c2ccc(Cl)cc2)c(-c2ccc3cc(-c4nc5cc(C(=O)O)cnc5n4C4CCCCC4)ccc3n2)c1 [Compound 537, 2-[2-(4′-chloro-4-methoxy-biphen-2-yl)-quinolin-6-yl]-3-cyclohexyl-3H-imidazo[4,5-b]pyridine-6-carboxylic acid] | 100 | 99.8 | –
CCOC(=O)c1cnc2c(c1)nc(-c1ccc3nc(-c4cc(O)ccc4-c4ccc(Cl)cc4)ccc3c1)n2C1CCCCC1 [Compound 538, 2-[2-(4′-chloro-4-hydroxy-biphen-2-yl)-quinolin-6-yl]-3-cyclohexyl-3H-imidazo[4,5-b]pyridine-6-carboxylic acid Ethyl Ester] | 56.6 | 72.8 | –
O=C(O)c1cnc2c(c1)nc(-c1ccc3nc(-c4cc(C(=O)N5CCCC5)ccc4-c4ccc(Cl)cc4)ccc3c1)n2C1CCCCC1 [Compound 539, 2-{2-[4′-chloro-4-(pyrrolidine-1-carbonyl)-biphen-2-yl]-quinolin-6-yl}-3-cyclohexyl-3H-imidazo[4,5-b]pyridine-6-carboxylic acid] | 104 | 102 | –
O=C(c1ccc(-c2ccc(Cl)cc2)c(-c2ccc3cc(-c4nc5ccccc5n4C4CCCCC4)ccc3n2)c1)N1CCCC1 [Compound 540] | – | – | % inh@33: 91.13%; % inh@100: 95.05%
NC(=O)CC[C@H](NC(=O)c1ccc2c(c1)nc(-c1ccc3nc(-c4ccccc4)cnc3c1)n2C1CCCCC1)C(=O)O [Compound 541, 4-Carbamoyl-2-{[1-cyclohexyl-2-(2-phenyl-quinoxalin-6-yl)-1H-benzoimidazole-5-carbonyl]-amino}-butyric acid] | 76.1 | 98.1 | –
NC(=O)[C@H](Cc1ccccc1)NC(=O)c1ccc2cc(-c3nc4cc(C(=O)O)ccc4n3C3CCCCC3)ccc2n1 [Compound 542, 2-[2-(1-Carbamoyl-2-phenylethylcarbamoyl)quinolin-6-yl]-1-cyclohexyl-1H-benzimidazole-5-carboxylic acid] | 81.1 | 98.6 | –
COc1ccc(-c2ccc(Cl)cc2)c(-c2ccc3cc(-c4nc5cc(C(=O)O)ccc5n4C4CCC(C)CC4)ccc3n2)c1 (stereo not drawn) [Compound 543, 2-[2-(4′-chloro-4-methoxy-biphen-2-yl)-quinolin-6-yl]-1-(4-methyl-cyclohexyl)-1H-benzoimidazole-5-carboxylic acid] | 102 | 102 | –
COc1ccc(-c2ccccc2F)c(-c2ccc3cc(-c4nc5cc(C(=O)O)ccc5n4C4CCCCC4)ccc3n2)c1 [Compound 544, 1-Cyclohexyl-2-[2-(2′-fluoro-4-methoxy-biphen-2-yl)-quinolin-6-yl]-1H-benzoimidazole-5-carboxylic acid] | 102 | 100 | –
COc1ccc(C2CCCCC2)c(-c2ccc3cc(-c4nc5cc(C(=O)O)ccc5n4C4CCCCC4)ccc3n2)c1 [Compound 545, 1-Cyclohexyl-2-[2-(2-cyclohexyl-5-methoxy-phenyl)-quinolin-6-yl]-1H-benzoimidazole-5-carboxylic acid] | 99.2 | 101 | –
CN(C(=O)c1ccc2cc(-c3nc4cc(C(=O)O)ccc4n3C3CCCCC3)ccc2n1)c1ccc(Cl)cc1 [Compound 546] | 95.3 | 102 | –
COc1ccc(-c2ccc(Cl)cc2)c(-c2ccc3cc(-c4nc5cc(C(=O)O)ccc5n4C4CCC(C)CC4)ccc3n2)c1 (stereo not drawn) [Compound 547, 2-[2-(4′-chloro-4-methoxy-biphen-2-yl)-quinolin-6-yl]-1-(4-methyl-cyclohexyl)-1H-benzoimidazole-5-carboxylic acid] | – | – | % inh@33 (33 µM): 102.71%; % inh@100 (100 µM): 101.82%
COc1ccc(-c2ccccc2C)c(-c2ccc3cc(-c4nc5cc(C(=O)O)ccc5n4C4CCCCC4)ccc3n2)c1 [Compound 548] | 103 | 101 | –
